Results from US9518046B2 (Calitor Sciences, LLC, priority 2015, dated 2016).
pIC50: −log10 of the molar value.

Columns and labels:
[1] = Compound stability in human liver microsomes; format: in vitro ADME; conditions: for half-life at 5 μM: human liver microsomes 0.5 mg protein/mL, compound 5 μM, NADPH 1.0 mM, pH 7.4, 37° C., read-out: Human T1/2; for CLint scaled at 5 μM: liver microsomes, pH 7.4, in vivo CLint extrapolated from human liver microsome incubation
Method: (§1) Human or rat liver microsomes incubations were conducted in duplicate in polypropylene tubes. The typical incubation mixtures consisted of human or rat liver microsomes (0.5 mg protein/mL), compounds of interest (5 μM) and NADPH (1.0 mM) in a total volume of 200 μL potassium phosphate buffer (PBS, 100 mM, pH 7.4). Compounds were dissolved in DMSO and diluted with PBS such that the final concentration of DMSO was 0.05%. The enzymatic reactions were commenced with the addition of protein after a 3-min preincubation and incubated in a water bath open to the air at 37° C. Reactions were terminated at various time points (0, 5, 10, 15, 30, 60 min) by adding equal volume of ice-cold acetonitrile. The samples were stored at −80° C. until LC/MS/MS assays.
(§2) The concentrations of compounds in the incubation mixtures of human or rat liver microsomes were determined by a LC/MS/MS method. The ranges of the linearity in the concentration range were determined for each tested compounds.
(§3) A parallel incubation was performed using denatured microsomes as the negative control, and reactions were terminated at various time points (0, 15, 60 min) after incubation at 37° C.
(§4) Dextromethorphan (70 μM) was selected as the positive control, and reactions were terminated at various time points (0, 5, 10, 15, 30, 60 min) after incubation at 37° C. Both positive and negative control samples were included in each assay to ensure the integrity of the microsomal incubation system.
(§5) The concentrations of compounds in human or rat liver microsome incubations were plotted as a percentage of the relevant zero time point control for each reaction. The in vivo CLint were extrapolated (ref.: Naritomi, Y.; Terashita, S.; Kimura, S.; Suzuki, A.; Kagayama, A.; and Sugiyama, Y.; Prediction of human hepatic clearance from in vivo animal experiments and in vitro metabolic studies with liver microsomes from animals and humans. Drug Metab. Dispos., 2001, 29: 1316-1324).

PI3K (p110δ/p85α) (h) = target: T1, PI3K (p110δ/p85α) (h) (Homo sapiens, UniProt O00329); assay: PI3K (p110δ/p85α) (h) non-radioactive HTRF kinase assay; format: biochemical; conditions: Kinase inhibition data; performed at Millipore UK Ltd
T1 construct: purchased Millipore UK Ltd
Method: (§6) The above assay procedure can be used to determine the IC50 for inhibition and/or the inhibition constant, Ki.
PI3K (p110δ/p85α) (h) [Non-Radioactive Assay]
(§7) PI3K (p110δ/p85α) (h) is incubated in assay buffer containing 10 μM phosphatidylinositol-4, 5-bisphosphate and MgATP (concentration as required). The reaction is initiated by the addition of the MgATP mix. After incubation for 30 minutes at room temperature, the reaction is stopped by the addition of stop solution containing EDTA and biotinylated phosphatidylinositol-3,4,5-trisphosphate. Finally, detection buffer is added, which contains europium-labelled anti-GST monoclonal antibody, GST-tagged GRP1 PH domain and streptavidin-allophycocyanin. The plate is then read in timeresolved fluorescence mode and the homogenous time-resolved fluorescence (HTRF) signal is determined according to the formula HTRF=10000×(Em665 nm/Em620 nm).
(§8) The kinase assays described herein were performed at Millipore UK Ltd, Dundee Technology Park, Dundee DD2 1SW, UK.

[2] = Pharmacokinetics after intravenous and oral administration in rats; format: in vivo; conditions: for CL/F / bioavailability: Rats; for CL/F: iv dosing, dose 1 mg/kg (0.5 for Ex. 1, 10, 11, 35; 0.48 for Ex. 24); for AUC(0-t) / half-life / Vd / bioavailability: rat, plasma; for AUC(0-t) / half-life / Vd: iv, 1 mg/kg; for Vd: read-out: Vss; for bioavailability: oral (p.o.) generally 5 or 10 mg/kg versus iv dosing
How it was run: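 Dosing used solution, suspension or capsule formulations: 1 or 2 mg/kg IV in all species; PO 5 or 10 mg/kg in mice and rats, 10 mg/kg in dogs and monkeys. Plasma sampled from 0.083 or 0.25 h up to 24 h post-dose; concentrations determined by LC/MS/MS in MRM mode.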

[3] = Compound stability in rat liver microsomes; format: in vitro ADME; conditions: for CLint scaled at 5 μM: liver microsomes, pH 7.4, in vivo CLint extrapolated from rat liver microsome incubation; for half-life at 5 μM: rat liver microsomes 0.5 mg protein/mL, compound 5 μM, NADPH 1.0 mM, pH 7.4, 37° C., read-out: Rat T1/2
Method: as §1, §2, §3, §4, §5

PI3K (p110α/p85α) (h) = target: T2, PI3K (p110α/p85α) (h) (Homo sapiens, UniProt P42336); assay: PI3K (p110α/p85α) (h) non-radioactive HTRF kinase assay; format: biochemical; conditions: Kinase inhibition data; performed at Millipore UK Ltd
T2 construct: purchased Millipore UK Ltd
Method: as §6
PI3K (p110α/p85α) (h) [Non-Radioactive Assay]
as §7, with “(p110α/p85α)” for “(p110δ/p85α)”, “phosphatidylinositol 4,5-bisphosphate” for “phosphatidylinositol-4, 5-bisphosphate”, “ATP solution.” for “MgATP mix.”, “streptavidin allophycocyanin.” for “streptavidin-allophycocyanin.”
as §8

PI3K (p120γ) (h) = target: T3, PI3K (p120γ) (h) (Homo sapiens, UniProt P48736); assay: PI3K (p120γ) (h) non-radioactive HTRF kinase assay; format: biochemical; conditions: Kinase inhibition data; performed at Millipore UK Ltd
T3 construct: purchased Millipore UK Ltd
Method: as §6
PI3K (p120γ) (h) [Non-Radioactive Assay]
as §7, with “(p120γ)” for “(p110δ/p85α)”, “M” for “μM”
as §8

PI3K (h) p110β/p85α = target: T4, PI3K (h) p110β/p85α (Homo sapiens, UniProt P42338); assay: PI3K (p110β/p85α) (h) non-radioactive HTRF kinase assay; format: biochemical; conditions: Kinase inhibition data; performed at Millipore UK Ltd
T4 construct: purchased Millipore UK Ltd
T4 sequence (P42338 whole entry): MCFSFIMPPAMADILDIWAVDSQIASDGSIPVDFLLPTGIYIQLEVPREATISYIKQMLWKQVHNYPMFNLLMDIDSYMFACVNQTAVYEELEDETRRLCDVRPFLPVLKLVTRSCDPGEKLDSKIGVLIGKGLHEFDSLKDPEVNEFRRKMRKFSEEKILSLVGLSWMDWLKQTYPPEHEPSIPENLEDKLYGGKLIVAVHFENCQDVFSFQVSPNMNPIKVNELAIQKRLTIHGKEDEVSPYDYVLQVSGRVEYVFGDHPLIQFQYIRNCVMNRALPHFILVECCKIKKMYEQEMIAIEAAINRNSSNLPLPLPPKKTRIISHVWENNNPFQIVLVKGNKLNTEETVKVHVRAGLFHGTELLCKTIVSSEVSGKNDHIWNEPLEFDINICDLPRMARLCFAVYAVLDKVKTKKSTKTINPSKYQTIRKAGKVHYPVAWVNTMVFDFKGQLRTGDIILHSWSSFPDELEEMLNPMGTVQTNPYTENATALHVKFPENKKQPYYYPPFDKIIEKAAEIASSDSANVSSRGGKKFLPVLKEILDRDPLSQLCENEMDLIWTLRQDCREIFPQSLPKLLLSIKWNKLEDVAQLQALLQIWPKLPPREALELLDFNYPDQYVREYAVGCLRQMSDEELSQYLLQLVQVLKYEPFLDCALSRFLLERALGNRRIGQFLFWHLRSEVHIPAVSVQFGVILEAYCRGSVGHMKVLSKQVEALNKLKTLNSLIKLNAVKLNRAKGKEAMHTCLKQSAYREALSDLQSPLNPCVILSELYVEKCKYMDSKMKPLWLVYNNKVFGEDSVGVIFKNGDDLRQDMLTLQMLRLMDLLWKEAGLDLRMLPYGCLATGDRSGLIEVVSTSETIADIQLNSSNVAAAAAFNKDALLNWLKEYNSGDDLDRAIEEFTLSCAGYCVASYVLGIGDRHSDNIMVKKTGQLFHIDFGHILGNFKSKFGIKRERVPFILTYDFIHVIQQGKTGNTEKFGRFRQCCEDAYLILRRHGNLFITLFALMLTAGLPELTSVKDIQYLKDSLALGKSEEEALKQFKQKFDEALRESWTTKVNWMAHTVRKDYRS
T4 sequence (P27986 whole entry partner): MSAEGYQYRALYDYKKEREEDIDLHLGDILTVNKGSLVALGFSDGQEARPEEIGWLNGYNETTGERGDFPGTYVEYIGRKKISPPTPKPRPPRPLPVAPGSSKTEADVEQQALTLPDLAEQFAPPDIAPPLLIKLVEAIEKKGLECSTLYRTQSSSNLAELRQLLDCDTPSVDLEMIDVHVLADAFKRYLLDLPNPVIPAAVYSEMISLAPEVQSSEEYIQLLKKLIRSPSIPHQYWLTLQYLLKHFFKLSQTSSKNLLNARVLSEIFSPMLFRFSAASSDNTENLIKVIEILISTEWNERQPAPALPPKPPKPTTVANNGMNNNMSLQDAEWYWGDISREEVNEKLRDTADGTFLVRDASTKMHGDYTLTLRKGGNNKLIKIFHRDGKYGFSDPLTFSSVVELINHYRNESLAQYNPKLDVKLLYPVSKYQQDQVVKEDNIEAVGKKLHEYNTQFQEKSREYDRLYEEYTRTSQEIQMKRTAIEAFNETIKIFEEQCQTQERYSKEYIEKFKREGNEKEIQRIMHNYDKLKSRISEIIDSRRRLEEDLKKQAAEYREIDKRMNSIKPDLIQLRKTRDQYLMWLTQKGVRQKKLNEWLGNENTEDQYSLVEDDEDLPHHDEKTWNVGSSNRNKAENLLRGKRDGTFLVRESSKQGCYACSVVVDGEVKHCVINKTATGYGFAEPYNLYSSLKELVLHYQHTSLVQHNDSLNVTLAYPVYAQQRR

T1 sequence (O00329 whole entry): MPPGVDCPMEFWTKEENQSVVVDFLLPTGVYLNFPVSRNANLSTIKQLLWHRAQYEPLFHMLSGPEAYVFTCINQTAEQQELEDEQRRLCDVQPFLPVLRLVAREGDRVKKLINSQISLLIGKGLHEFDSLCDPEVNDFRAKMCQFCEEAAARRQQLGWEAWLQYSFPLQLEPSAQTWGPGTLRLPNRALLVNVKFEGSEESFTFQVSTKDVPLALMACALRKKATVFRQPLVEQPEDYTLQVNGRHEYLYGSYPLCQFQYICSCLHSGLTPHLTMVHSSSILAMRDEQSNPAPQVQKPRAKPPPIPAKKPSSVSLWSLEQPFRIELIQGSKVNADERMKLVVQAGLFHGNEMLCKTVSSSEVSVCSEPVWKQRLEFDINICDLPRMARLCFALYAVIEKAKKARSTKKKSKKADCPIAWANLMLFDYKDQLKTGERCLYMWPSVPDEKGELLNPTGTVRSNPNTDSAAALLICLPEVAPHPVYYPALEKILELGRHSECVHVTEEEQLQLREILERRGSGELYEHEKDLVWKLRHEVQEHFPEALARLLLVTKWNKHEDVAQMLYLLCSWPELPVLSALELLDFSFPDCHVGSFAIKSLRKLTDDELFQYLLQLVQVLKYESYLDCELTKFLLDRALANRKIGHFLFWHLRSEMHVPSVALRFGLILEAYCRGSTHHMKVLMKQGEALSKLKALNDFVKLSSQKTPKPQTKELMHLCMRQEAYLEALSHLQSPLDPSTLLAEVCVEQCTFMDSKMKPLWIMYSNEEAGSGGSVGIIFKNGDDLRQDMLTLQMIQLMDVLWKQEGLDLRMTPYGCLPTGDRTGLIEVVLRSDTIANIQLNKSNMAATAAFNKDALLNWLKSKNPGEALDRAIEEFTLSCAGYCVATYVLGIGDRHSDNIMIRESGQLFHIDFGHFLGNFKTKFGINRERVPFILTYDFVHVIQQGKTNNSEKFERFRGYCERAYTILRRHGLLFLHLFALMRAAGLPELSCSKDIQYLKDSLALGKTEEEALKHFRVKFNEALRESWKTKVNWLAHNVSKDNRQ
T1 sequence (P27986 whole entry partner): as the sequence (P27986 whole entry partner) above
T2 sequence (P42336 whole entry): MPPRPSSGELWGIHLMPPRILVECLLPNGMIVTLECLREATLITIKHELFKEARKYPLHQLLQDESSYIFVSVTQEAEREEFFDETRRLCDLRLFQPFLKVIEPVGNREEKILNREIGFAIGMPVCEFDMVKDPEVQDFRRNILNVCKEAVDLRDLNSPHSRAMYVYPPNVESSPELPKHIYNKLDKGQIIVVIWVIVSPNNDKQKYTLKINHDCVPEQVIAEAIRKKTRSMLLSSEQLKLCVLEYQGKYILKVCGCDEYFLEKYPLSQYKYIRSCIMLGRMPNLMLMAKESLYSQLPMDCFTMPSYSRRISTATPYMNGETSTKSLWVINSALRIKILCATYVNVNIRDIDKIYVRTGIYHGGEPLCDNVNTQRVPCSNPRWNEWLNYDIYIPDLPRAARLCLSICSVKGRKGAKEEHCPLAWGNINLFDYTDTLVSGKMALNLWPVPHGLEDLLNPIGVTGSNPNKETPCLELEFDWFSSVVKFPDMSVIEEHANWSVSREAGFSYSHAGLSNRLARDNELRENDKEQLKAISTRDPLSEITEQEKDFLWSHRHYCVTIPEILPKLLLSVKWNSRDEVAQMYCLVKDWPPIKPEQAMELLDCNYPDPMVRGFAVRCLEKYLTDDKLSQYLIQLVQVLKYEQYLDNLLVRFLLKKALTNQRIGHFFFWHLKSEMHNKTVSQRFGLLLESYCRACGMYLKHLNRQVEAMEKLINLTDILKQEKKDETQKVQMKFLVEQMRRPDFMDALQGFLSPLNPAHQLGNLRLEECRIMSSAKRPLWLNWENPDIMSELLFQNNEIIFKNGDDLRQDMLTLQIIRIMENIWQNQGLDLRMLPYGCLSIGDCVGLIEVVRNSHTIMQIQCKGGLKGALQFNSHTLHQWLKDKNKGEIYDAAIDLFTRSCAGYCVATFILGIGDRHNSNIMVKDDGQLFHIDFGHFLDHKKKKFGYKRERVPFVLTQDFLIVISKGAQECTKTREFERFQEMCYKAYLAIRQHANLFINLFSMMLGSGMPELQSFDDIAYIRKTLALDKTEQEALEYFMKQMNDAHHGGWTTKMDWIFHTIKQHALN
T2 sequence (P27986 whole entry partner): as the sequence (P27986 whole entry partner) above
T3 sequence (P48736 whole entry): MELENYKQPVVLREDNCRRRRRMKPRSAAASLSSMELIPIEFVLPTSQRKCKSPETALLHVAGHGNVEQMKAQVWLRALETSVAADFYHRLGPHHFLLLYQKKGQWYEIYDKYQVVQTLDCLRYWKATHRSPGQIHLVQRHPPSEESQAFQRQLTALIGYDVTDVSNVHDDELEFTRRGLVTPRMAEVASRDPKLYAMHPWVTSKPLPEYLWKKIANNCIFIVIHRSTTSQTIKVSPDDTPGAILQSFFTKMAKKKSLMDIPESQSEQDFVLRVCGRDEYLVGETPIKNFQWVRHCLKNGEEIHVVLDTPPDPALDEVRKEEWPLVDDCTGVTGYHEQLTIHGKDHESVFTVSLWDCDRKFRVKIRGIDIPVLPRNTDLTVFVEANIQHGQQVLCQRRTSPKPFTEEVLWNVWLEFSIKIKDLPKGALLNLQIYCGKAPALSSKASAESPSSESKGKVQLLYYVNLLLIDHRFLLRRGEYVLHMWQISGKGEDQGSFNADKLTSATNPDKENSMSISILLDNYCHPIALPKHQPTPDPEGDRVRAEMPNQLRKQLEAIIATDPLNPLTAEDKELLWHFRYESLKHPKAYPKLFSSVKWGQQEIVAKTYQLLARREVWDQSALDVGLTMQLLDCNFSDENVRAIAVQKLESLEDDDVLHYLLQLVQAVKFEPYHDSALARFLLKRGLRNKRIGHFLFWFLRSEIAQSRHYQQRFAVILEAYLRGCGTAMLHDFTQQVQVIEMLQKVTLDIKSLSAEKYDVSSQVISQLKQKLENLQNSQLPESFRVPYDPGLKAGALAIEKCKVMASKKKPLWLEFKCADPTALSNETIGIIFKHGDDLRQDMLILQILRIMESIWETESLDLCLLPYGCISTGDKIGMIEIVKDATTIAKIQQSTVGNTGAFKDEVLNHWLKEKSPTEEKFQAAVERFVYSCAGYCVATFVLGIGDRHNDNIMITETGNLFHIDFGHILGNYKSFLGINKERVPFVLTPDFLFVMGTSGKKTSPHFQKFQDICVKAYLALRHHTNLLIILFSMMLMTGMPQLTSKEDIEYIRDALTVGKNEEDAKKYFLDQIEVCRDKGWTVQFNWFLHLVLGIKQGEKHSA

| half-life at 5 μM [1] | CLint scaled at 5 μM [1] | pIC50 (PI3K (p110δ/p85α) (h)) | CL/F [2] | AUC(0-t) [2] | half-life [2] | Vd [2] | bioavailability [2] | CLint scaled at 5 μM [3] | half-life at 5 μM [3] | pIC50 (PI3K (p110α/p85α) (h)) | pIC50 (PI3K (p120γ) (h)) | pIC50 (PI3K (h) p110β/p85α) | SMILES |
| --- | --- | --- | --- | --- | --- | --- | --- | --- | --- | --- | --- | --- | --- |
| 1.58 h | 18.3 mL/min/kg | 7.33 | 23.2 mL/min/kg | 777 ng·h/mL | 1.14 h | 1.86 L/kg | 71.7% | 10.1 mL/min/kg | 4.08 h | – | – | – | Cc1nnc(-c2c(N)ncnc2N[C@@H](C)c2nc3cccc(-c4cnn(C)c4)c3c(=O)n2C2CC2)o1 [Ex. 67, (S)-2-(1-((6-amino-5-(5-methyl-1,3,4-oxadiazol-2-yl)pyrimidin-4-yl)amino)ethyl)-3-cyclopropyl-5-(1-methyl-1H-pyrazol-4-yl)quinazolin-4(3H)-one] |
| 1.1 h | 26.3 mL/min/kg | 7.30 | 44 mL/min/kg | 399 ng·h/mL | 0.85 h | 3.3 L/kg | 96.4% | 37.8 mL/min/kg | 1.1 h | – | – | – | Cc1nnc(-c2c(N)ncnc2N[C@@H](C)c2nc3cccc(Cl)c3c(=O)n2C2CC2)o1 [Ex. 70, (S)-2-(1-((6-amino-5-(5-methyl-1,3,4-oxadiazol-2-yl)pyrimidin-4-yl)amino)ethyl)-5-chloro-3-cyclopropylquinazolin-4(3H)-one] |
| – | – | 7.80 | 64 mL/min/kg | 256 ng·h/mL | 1.07 h | 4.9 L/kg | 85.5% | – | – | 5.88 | 6.32 | 6.12 | CC[C@H](Nc1ncnc(N)c1-c1nc(C)no1)c1nc2cccc(-c3cnn(C)c3)c2c(=O)n1C1CC1 [Ex. 71, (S)-2-(1-((6-amino-5-(3-methyl-1,2,4-oxadiazol-5-yl)pyrimidin-4-yl)amino)propyl)-3-cyclopropyl-5-(1-methyl-1H-pyrazol-4-yl)quinazolin-4(3H)-one] |
| – | – | 6.85 | 65.8 mL/min/kg | 270 ng·h/mL | 0.98 h | 3.85 L/kg | 35.9% | – | – | < 5.52 | < 5.52 | < 5.52 | CC[C@H](Nc1ncnc(N)c1-c1nnc(C)o1)c1nc2cccc(-c3cnn(C)c3)c2c(=O)n1C1CC1 [Ex. 72, (S)-2-(1-((6-amino-5-(5-methyl-1,3,4-oxadiazol-2-yl)pyrimidin-4-yl)amino)propyl)-3-cyclopropyl-5-(1-methyl-1H-pyrazol-4-yl)quinazolin-4(3H)-one] |
| – | – | – | 19.8 mL/min/kg | 841 ng·h/mL | 1.41 h | 2.01 L/kg | 72.5% | – | – | – | – | – | C[C@H](Nc1ncnc(N)c1-c1nnn(C)n1)c1nc2cccc(-c3cnn(C)c3)c2c(=O)n1C1CC1 [Ex. 75, (S)-2-(1-((6-amino-5-(2-methyl-2H-tetrazol-5-yl)pyrimidin-4-yl)amino)ethyl)-3-cyclopropyl-5-(1-methyl-1H-pyrazol-4-yl)quinazolin-4(3H)-one] |
| 4.49 h | 6.46 mL/min/kg | – | 6.5 mL/min/kg | 2510 ng·h/mL | 1.45 h | 0.77 L/kg | 105% | 8.61 mL/min/kg | 4.81 h | – | – | – | C[C@H](Nc1ncnc(N)c1-c1nnn(C)n1)c1nc2cccc(-c3cnn(C)c3)c2c(=O)n1-c1ccccc1 [Ex. 76, (S)-2-(1-((6-amino-5-(2-methyl-2H-tetrazol-5-yl)pyrimidin-4-yl)amino)ethyl)-5-(1-methyl-1H-pyrazol-4-yl)-3-phenylquinazolin-4(3H)-one] |
| 1.36 h | 21.3 mL/min/kg | – | 5.33 mL/min/kg | 2920 ng·h/mL | 1.76 h | 0.78 L/kg | 109% | 21.2 mL/min/kg | 1.95 h | – | – | – | Cc1nc(-c2c(N)ncnc2N[C@@H](C)c2nc3cccc(-c4cnn(C)c4)c3c(=O)n2-c2ccccc2)no1 [Ex. 77, (S)-2-(1-((6-amino-5-(5-methyl-1,2,4-oxadiazol-3-yl)pyrimidin-4-yl)amino)ethyl)-5-(1-methyl-1H-pyrazol-4-yl)-3-phenylquinazolin-4(3H)-one] |
| 1 h | 28.9 mL/min/kg | – | 20.8 mL/min/kg | 783 ng·h/mL | 1.27 h | 2.18 L/kg | 67.7% | 38.3 mL/min/kg | 1.08 h | – | – | – | CC[C@H](Nc1ncnc(N)c1-c1nnn(C)n1)c1nc2cccc(-c3cnn(C)c3)c2c(=O)n1C1CC1 [Ex. 78, (S)-2-(1-((6-amino-5-(2-methyl-2H-tetrazol-5-yl)pyrimidin-4-yl)amino)propyl)-3-cyclopropyl-5-(1-methyl-1H-pyrazol-4-yl)quinazolin-4(3H)-one] |
| 0.821 h | 35.3 mL/min/kg | – | 32.2 mL/min/kg | 511 ng·h/mL | 1.36 h | 4.25 L/kg | 78.7% | 17.3 mL/min/kg | 2.4 h | – | – | – | CC[C@H](Nc1ncnc(N)c1-c1noc(C)n1)c1nc2cccc(-c3cnn(C)c3)c2c(=O)n1C1CC1 [Ex. 79, (S)-2-(1-((6-amino-5-(5-methyl-1,2,4-oxadiazol-3-yl)pyrimidin-4-yl)amino)propyl)-3-cyclopropyl-5-(1-methyl-1H-pyrazol-4-yl)quinazolin-4(3H)-one] |
| 1.07 h | 27 mL/min/kg | – | – | – | – | – | – | 37.7 mL/min/kg | 1.1 h | – | – | – | Cc1nc(-c2c(N)ncnc2N[C@@H](C)c2nc3cccc(-c4cnn(C)c4)c3c(=O)n2C2CC2)no1 [Ex. 80, (S)-2-(1-((6-amino-5-(5-methyl-1,2,4-oxadiazol-3-yl)pyrimidin-4-yl)amino)ethyl)-3-cyclopropyl-5-(1-methyl-1H-pyrazol-4-yl)quinazolin-4(3H)-one] |
